Test results reported in US9999222B2, “Herbicidal combination comprising azines” (BASF SE, priority 2014, dated 2018).
Like-named read-outs stand apart in the source and are kept apart here.

How the values were obtained:
Test in all cases: Greenhouse test, pre-emergence treatment
GALAP = type: in vivo, Galium aparine; conditions: Galium aparine, pre-emergence, 480 h
Description: (§1) The culture containers used were plastic flowerpots containing loamy sand with approximately 3.0% of humus as the substrate. The seeds of the test plants were sown separately for each species.
(§2) For the pre-emergence treatment, the active ingredients, which had been suspended or emulsified in water, were applied directly after sowing by means of finely distributing nozzles. The containers were irrigated gently to promote germination and growth and subsequently covered with transparent plastic hoods until the plants had rooted. This cover caused uniform germination of the test plants, unless this had been impaired by the active ingredients.
(§3) Depending on the species, the plants were kept at 10-25° C. or 20-35° C., respectively.
(§4) The test period extended over 2 to 4 weeks. During this time, the plants were tended, and their response to the individual treatments was evaluated.
(§5) Evaluation was carried out using a scale from 0 to 100. 100 means no emergence of the plants, or complete destruction of at least the aerial moieties, and 0 means no damage, or normal course of growth. A moderate herbicidal activity is given at values of at least 60, a good herbicidal activity is given at values of at least 70, and a very good herbicidal activity is given at values of at least 85.
(§6) The respective stated components a and b, and if appropriate, c were formulated as a 10% by weight strength emulsion concentrate and, with addition of the amount of solvent system, introduced into the spray liquor used for applying the active compound.
(§7) In the examples, the solvent used was water.
(§8) In the examples below, using the method of S. R. Colby (1967) “Calculating synergistic and antagonistic responses of herbicide combinations”, Weeds 15, p. 22ff., the value E, which is expected if the activity of the individual active compounds is only additive, was calculated. E=X+Y−(X·Y/100) where • X=percent activity using active compound a at an application rate A; • Y=percent activity using active compound b at an application rate B; • E=expected activity (in %) by a+b at application rates A+B.
(§9) If the value found experimentally is higher than the value E calculated according to Colby, a synergistic effect is present.

SIDRH = type: in vivo, Sida rhombifolia; conditions: 20 DAT; for inhibition at 25 g/ha / inhibition at 50 g/ha: Sida rhombifolia, pre-emergence, 480 h, read-out: observed % activity; for inhibition at 50 g/ha: 50 g ai/ha
Description: as §1, §2, §3, §4, §5, §6, §7, §8, §9

ABUTH = type: in vivo, Abutilon theophrasti; conditions: Abutilon theophrasti, 480 h; for inhibition at 25 g/ha: 25 g ai/ha, 20 DAT, read-out: observed % activity
Description: as §1, §2, §3, §4, §5, §6, §7, §8, §9

ANTAR = type: in vivo; conditions: Anthemis arvensis, 480 h, 20 DAT, read-out: observed % activity; for inhibition at 25 g/ha: 25 g ai/ha; for inhibition at 50 g/ha: 50 g ai/ha
Description: as §1, §2, §3, §4, §5, §6, §7, §8, §9

IPOHE = type: in vivo, Ipomoea hederacea; conditions: Ipomoea hederacea, 480 h
Description: as §1, §2, §3, §4, §5, §6, §7, §8, §9

EPHHL = type: in vivo, Euphorbia heterophylla; conditions: Euphorbia heterophylla, pre-emergence, 480 h
Description: as §1, §2, §3, §4, §5, §6, §7, §8, §9

KCHSC = type: in vivo, Kochia scoparia; conditions: Bassia scoparia, pre-emergence, 480 h
Description: as §1, §2, §3, §4, §5, §6, §7, §8, §9

GERPU = type: in vivo, Geranium pusillum; conditions: Geranium pusillum, pre-emergence, 480 h
Description: as §1, §2, §3, §4, §5, §6, §7, §8, §9

COMBE = type: in vivo, Commelina benghalensis; conditions: Commelina benghalensis, pre-emergence, 480 h
Description: as §1, §2, §3, §4, §5, §6, §7, §8, §9

POLCO = type: in vivo, Polygonum convolvulus; conditions: Fallopia convolvulus, pre-emergence, 480 h
Description: as §1, §2, §3, §4, §5, §6, §7, §8, §9

CENCY = type: in vivo; conditions: 480 h, individual, read-out: observed % activity 20 DAT; for inhibition at 25 g/ha: use rate 25 g ai/ha; for inhibition at 50 g/ha: use rate 50 g ai/ha
[1] = 50 g ai/ha, 20 DAT, read-out: observed % activity
[2] = GALAP, individual, use rate 25 g ai/ha, read-out: observed % activity 20 DAT
[3] = GALAP, individual, use rate 50 g ai/ha, read-out: observed % activity 20 DAT
[4] = 25 g ai/ha, 20 DAT, read-out: observed % activity
[5] = EPHHL, individual, use rate 25 g ai/ha, read-out: observed % activity 20 DAT
[6] = EPHHL, individual, use rate 50 g ai/ha, read-out: observed % activity 20 DAT
[7] = GERPU, individual, use rate 25 g ai/ha, read-out: observed % activity 20 DAT
[8] = COMBE, individual, use rate 50 g ai/ha, read-out: observed % activity 20 DAT
[9] = POLCO, individual, use rate 25 g ai/ha, read-out: observed % activity 20 DAT
[10] = POLCO, individual, use rate 50 g ai/ha, read-out: observed % activity 20 DAT

SMILES	inhibition at 25 g/ha (GALAP; [2])	inhibition at 50 g/ha (GALAP; [3])	inhibition at 25 g/ha (SIDRH; 25 g ai/ha)	inhibition at 50 g/ha (SIDRH)	inhibition at 25 g/ha (ABUTH)	inhibition at 25 g/ha (ANTAR)	inhibition at 50 g/ha (ANTAR)	inhibition at 25 g/ha (EPHHL; [4])	inhibition at 50 g/ha (EPHHL; [1])	inhibition at 25 g/ha (EPHHL; [5])	inhibition at 50 g/ha (EPHHL; [6])	inhibition at 25 g/ha (KCHSC; [4])	inhibition at 50 g/ha (KCHSC; [1])	inhibition at 25 g/ha (GERPU; [4])	inhibition at 50 g/ha (GERPU; [1])	inhibition at 25 g/ha (GERPU; [7])	inhibition at 25 g/ha (COMBE; [4])	inhibition at 50 g/ha (COMBE; [1])	inhibition at 50 g/ha (COMBE; [8])	inhibition at 25 g/ha (POLCO; [4])	other results
CS(=O)(=O)c1ccc(C(=O)C2C(=O)CCCC2=O)c([N+](=O)[O-])c1 [Mesotrione, mesotrione]	65%	80%	60%	85%	95%	85%	95%	60%	70%	50%	60%	70%	90%	0%	0%	70%	65%	98%	0%	20%	inhibition at 50 g/ha (GALAP; [1]): 75%; observed % activity (SIDRH; 25 g ai/ha): 55%; inhibition at 50 g/ha (IPOHE; [1]): 30%; inhibition at 25 g/ha (COMBE; COMBE, individual, use rate 25 g ai/ha, read-out: observed % activity 20 DAT): 0%; inhibition at 50 g/ha (POLCO; [1]): 30%; inhibition at 25 g/ha (POLCO; [9]): 0%; inhibition at 50 g/ha (POLCO; [10]): 0%; inhibition at 25 g/ha (CENCY): 60%; inhibition at 50 g/ha (CENCY): 40%
CS(=O)(=O)c1cc(C(F)(F)F)ccc1C(=O)c1cnoc1C1CC1 [isoxaflutole]	40%	70%	90%	98%	98%	95%	98%	85%	85%	65%	70%	98%	98%	0%	45%	70%	85%	80%	45%	0%	inhibition at 25 g/ha (GALAP; [4]): 40%; inhibition at 50 g/ha (ABUTH; ABUTH, individual, use rate 50 g ai/ha, read-out: observed % activity 20 DAT): 95%; inhibition at 50 g/ha (IPOHE; IPOHE, individual, use rate 50 g ai/ha, read-out: observed % activity 20 DAT): 35%; inhibition at 25 g/ha (KCHSC; KCHSC, individual, use rate 25 g ai/ha, read-out: observed % activity 20 DAT): 98%; inhibition at 50 g/ha (KCHSC; KCHSC, individual, use rate 50 g ai/ha, read-out: observed % activity 20 DAT): 98%; inhibition at 50 g/ha (GERPU; GERPU, individual, use rate 50 g ai/ha, read-out: observed % activity 20 DAT): 50%; inhibition at 50 g/ha (POLCO; [1]): 30%; inhibition at 25 g/ha (POLCO; [9]): 0%; inhibition at 50 g/ha (POLCO; [10]): 0%; inhibition at 25 g/ha (CENCY): 20%; inhibition at 50 g/ha (CENCY): 60%
